This note sets out measurements from PMC11151873, “Cathelicidin-HG Alleviates Sepsis-Induced Platelet Dysfunction by Inhibiting GPVI-Mediated Platelet Activation” (Research, 2024).

The test system of assay [1] is lactate dehydrogenase (LDH). The experiment in a line: Serum LDH activity in CLP mice. The assay is classed as in vivo, Male BALB/c mice. Conditions: i.p. 2 h after CLP; Cath-HG 1.25, 2.5, 5 mg/kg or clopidogrel 20 mg/kg; n = 4. The protocol:
(§1) CLP-induced sepsis was performed based on our previous method with minor modifications. Briefly, under sterile conditions, the cecum of anesthetized mice was exposed and tightly ligated approximately 1 cm from the end. Then, the cecum was punctured twice at different mid-points with a 22-gauge needle, gently squeezed to extrude a small amount of fecal matter, returned into the peritoneal cavity which was sutured. Finally, the mice underwent resuscitation through the administration of 1 ml of preheated physiological saline via subcutaneous injection. […] Clopidogrel (20 mg/kg) was administered as a positive control, and blank control mice underwent sham surgery and received saline. All mice were monitored for 72 h after the induction of CLP. Another group of mice underwent the same procedure described above. Twenty-four hours after the surgery, the mice were euthanized, and blood, heart, liver, spleen, lung, and kidney samples were collected for subsequent analysis.
For platelet count determination, blood was collected in EDTA and analyzed using a PE-6800 Fully Auto Hematology Analyzer (Prokan, Shenzhen, China). […] TPO levels were determined by ELISA, and LDH activity was measured using an LDH assay kit.

For assay [2], the system named is CLP septic mice. The experiment in a line: Microvascular thrombosis by fluorescent bead imaging in CLP mice. The assay is classed as in vivo, Male BALB/c mice. Conditions: lungs, liver, kidneys; i.p. 2 h after CLP; Cath-HG 1.25, 2.5, 5 mg/kg or clopidogrel 20 mg/kg. The protocol:
as §1

Assay [3] deals with CLP septic mice. The experiment in a line: Bacterial loads in organs of CLP mice. Type of assay: in vivo, Male BALB/c mice. Conditions: heart, liver, spleen, lung, kidney; 24 h after CLP; i.p. Cath-HG 1.25, 2.5, 5 mg/kg or clopidogrel 20 mg/kg. The protocol: as §1
Assay [4] has as its system phosphorylation of Src, Syk, PLCγ2, and Akt. The experiment in a line: Western blot: phosphorylation of GPVI downstream proteins in collagen-stimulated platelets. Type of assay: cell-based, mice. As to conditions: washed platelets, Cath-HG 5, 10, 20 μM 5 min, n = 3, or dasatinib (Src inhibitor). The protocol: The platelets were lysed with radioimmunoprecipitation assay buffer containing protease inhibitor and phosphatase inhibitor cocktails, and the protein concentration was determined with a bicinchoninic acid protein assay kit before SDS-polyacrylamide gel electrophoresis separation and polyvinylidene difluoride (PVDF) membrane transferring. The membranes were incubated with corresponding primary antibodies overnight at 4 °C and appropriate horseradish peroxidase-conjugated secondary antibodies at room temperature for 1 h after being blocked with 5% skimmed milk at room temperature for 1 h. Finally, the results were recorded using a FluorChem R chemiluminescence imaging system (ProteinSimple, CA, USA) and analyzed using ImageJ software.
Background: A western blot detects proteins with antibodies after separation by electrophoresis.

Assay [5] concerns the target platelet glycoprotein VI (mouse (endogenous in mouse platelets)) (UniProt P0C191).
The test system of the next assay is FeCl3-injured mice. The experiment in a line: FeCl3-induced carotid artery thrombosis model. The assay is classed as in vivo, Male BALB/c mice. As to conditions: FeCl3 10% (w/v), i.v. 30 min before injury, Cath-HG 5 mg/kg or heparin 1,000 U/kg. The protocol:
The carotid artery thrombus experiment was carried out as described by Zhang et al. […] Anesthesia was induced with 2.0% isoflurane before the left carotid artery was exposed through a midline neck incision. A small piece of filter paper (2 mm × 1 mm) saturated with 10% (w/v) FeCl3 solution was placed on the carotid artery for 5 min to induce thrombus formation. The filter paper was then removed, and the artery was washed with saline. The carotid blood flow and occlusion time were measured to evaluate thrombus formation with the RFLSI Pro+ laser speckle blood flow imaging system (RWD, Shenzhen, China).

UniProt P0C191, sequence (P0C191 22-313): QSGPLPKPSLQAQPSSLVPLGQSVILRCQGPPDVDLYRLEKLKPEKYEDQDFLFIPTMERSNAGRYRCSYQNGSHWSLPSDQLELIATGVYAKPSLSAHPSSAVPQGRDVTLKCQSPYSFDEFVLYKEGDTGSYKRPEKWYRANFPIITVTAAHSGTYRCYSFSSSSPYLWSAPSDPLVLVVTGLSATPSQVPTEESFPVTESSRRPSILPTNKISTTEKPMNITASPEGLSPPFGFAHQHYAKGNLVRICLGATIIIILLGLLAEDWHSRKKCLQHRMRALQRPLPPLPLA

As to `COC(=O)[C@H](c1ccccc1Cl)N1CCc2sccc2C1` [clopidogrel], the “LDH activity in serum” value in assay [1] is “significantly decreased after Cath-HG or clopidogrel treatment”. Also, the “microvascular thrombosis (fluorescence of beads)” value in the assay with CLP septic mice [2] was “reduced the fluorescence levels of lungs, liver, and kidneys”. The “bacterial load in organs” value with CLP septic mice [3] is recorded as “reduced the bacterial burden in the organs of CLP mice”. In the case of `Cc1nc(Nc2ncc(C(=O)Nc3c(C)cccc3Cl)s2)cc(N2CCN(CCO)CC2)n1` [dasatinib], the “collagen-induced phosphorylation of GPVI downstream proteins (Src, Syk, PLCγ2, Akt)” value in assay [4] is given as “completely inhibited”. On to Cathelicidin-HG (peptide), for which, in assay [5], the inhibition of platelet aggregation in platelet-rich plasma induced by the GPVI-specific agonist convulxin (0.6 nM); Cath-HG 5, 10 and 20 μM, value at 20 μM worked out at 63.2%.

For heparin, in the assay with FeCl3-injured mice (laser speckle imaging), the carotid blood flow result is “significantly increased blood flow”. In addition, the “mean occlusion time of carotid artery” value in the assay on FeCl3-injured mice (n = 3, mean ± SD, control 2.9 ± 0.3 min) is 5.4 ± 0.3 min.
